From US8053418B2, “Anti-penicillin resistant pneumococci agent and novel 16-membered macrolide derivative” (Microbial Chemistry Research Foundation, priority 2005, dated 2011)
Converted amounts (≈) assume the structure as drawn. “Also recorded” adds a separate entry of the source. Where two headings read alike, the source gives them in different places.

What was measured:
Type in all cases: cell-based
[1] = test system: Streptococcus pneumoniae IMC B-0919 (PRSP); experiment: Antimicrobial activity test (MIC), clinical isolate IMC B-0919
Experimental: (§1) Using Streptococcus pneumoniae that include clinical isolates of PRSP, the antimicrobial activity of each of the prepared anti-PRSP agents was measured in accordance with the “determination method of minimum inhibitory concentration of drug against bacteria” of Japanese Society of Chemotherapy (for re-revised version, see Chemotherapy 29; 76, 1981).
(§2) 11 test strains of Streptococcus pneumoniae including IMC B-0919 are all clinical isolates, of which 2 strains, IMC B-0921 and IMC B-1229, are classified into penicillin susceptible Streptococcus pneumoniae (PSSP) and the remaining 9 strains are classified into penicillin-resistant Streptococcus pneumoniae (PRSP) (according to NCCLS standards).

[2] = test system: Streptococcus pneumoniae IMC B-0920 (PRSP); experiment: Antimicrobial activity test (MIC), clinical isolate IMC B-0920
Experimental: as §1, §2

[3] = test system: Streptococcus pneumoniae IMC B-0922 (PRSP); experiment: Antimicrobial activity test (MIC), clinical isolate IMC B-0922
Experimental: as §1, §2

[4] = test system: Streptococcus pneumoniae IMC B-1231 (PRSP); experiment: Antimicrobial activity test (MIC), clinical isolate IMC B-1231
Experimental: as §1, §2

[5] = test system: Streptococcus pneumoniae IMC B-1232 (PRSP); experiment: Antimicrobial activity test (MIC), clinical isolate IMC B-1232
Experimental: as §1, §2

[6] = test system: Streptococcus pneumoniae IMC B-1233 (PRSP); experiment: Antimicrobial activity test (MIC), clinical isolate IMC B-1233
Experimental: as §1, §2

[7] = test system: Streptococcus pneumoniae IMC B-1234 (PRSP); experiment: Antimicrobial activity test (MIC), clinical isolate IMC B-1234
Experimental: as §1, §2

[8] = test system: Streptococcus pneumoniae IMC B-1235 (PRSP); experiment: Antimicrobial activity test (MIC), clinical isolate IMC B-1235
Experimental: as §1, §2

[9] = test system: Streptococcus pneumoniae IMC B-1236 (PRSP); experiment: Antimicrobial activity test (MIC), clinical isolate IMC B-1236
Experimental: as §1, §2

[10] = test system: Streptococcus pneumoniae IMC B-0921 (PSSP); experiment: Antimicrobial activity test (MIC), clinical isolate IMC B-0921
Experimental: as §1, §2

[11] = test system: Streptococcus pneumoniae IMC B-1229 (PSSP); experiment: Antimicrobial activity test (MIC), clinical isolate IMC B-1229
Experimental: as §1, §2

[12] = test system: penicillin-resistant Streptococcus pneumoniae (PRSP); experiment: Anti-PRSP activity, overall statements on the clinical isolates; details: statement in words
Experimental: as §1, §2
For the compounds of the present invention, MKT-1011, MKT-2003, MKT-3002 and MKT-3003, the antimicrobial activity was measured in the same way as in Experimental Example 1.

[13] = PRSP clinical isolate IMC B-0919
[14] = Streptococcus pneumoniae IMC B-0919, PRSP
[15] = PRSP clinical isolate IMC B-0920
[16] = Streptococcus pneumoniae IMC B-0920, PRSP
[17] = PRSP clinical isolate IMC B-0922
[18] = Streptococcus pneumoniae IMC B-0922, PRSP
[19] = PRSP clinical isolate IMC B-1231
[20] = Streptococcus pneumoniae IMC B-1231, PRSP
[21] = PRSP clinical isolate IMC B-1232
[22] = Streptococcus pneumoniae IMC B-1232, PRSP
[23] = PRSP clinical isolate IMC B-1233
[24] = Streptococcus pneumoniae IMC B-1233, PRSP
[25] = PRSP clinical isolate IMC B-1234
[26] = Streptococcus pneumoniae IMC B-1234, PRSP
[27] = PRSP clinical isolate IMC B-1235
[28] = Streptococcus pneumoniae IMC B-1235, PRSP
[29] = PRSP clinical isolate IMC B-1236
[30] = Streptococcus pneumoniae IMC B-1236, PRSP
[31] = PSSP clinical isolate IMC B-0921
[32] = Streptococcus pneumoniae IMC B-0921, PSSP
[33] = PSSP clinical isolate IMC B-1229
[34] = Streptococcus pneumoniae IMC B-1229, PSSP
[35] = Streptococcus pneumoniae IMC B-0919, PRSP, read-out: MIC
[36] = Streptococcus pneumoniae IMC B-0920, PRSP, read-out: MIC
[37] = Streptococcus pneumoniae IMC B-0922, PRSP, read-out: MIC
[38] = Streptococcus pneumoniae IMC B-1231, PRSP, read-out: MIC
[39] = Streptococcus pneumoniae IMC B-1232, PRSP, read-out: MIC
[40] = Streptococcus pneumoniae IMC B-1233, PRSP, read-out: MIC
[41] = Streptococcus pneumoniae IMC B-1234, PRSP, read-out: MIC
[42] = Streptococcus pneumoniae IMC B-1235, PRSP, read-out: MIC
[43] = Streptococcus pneumoniae IMC B-1236, PRSP, read-out: MIC
[44] = Streptococcus pneumoniae IMC B-0921, PSSP, read-out: MIC
[45] = Streptococcus pneumoniae IMC B-1229, PSSP, read-out: MIC

Compound	MIC [1, 13]	MIC [1, 14]	MIC [2, 15]	MIC [2, 16]	MIC [3, 17]	MIC [3, 18]	MIC [4, 19]	MIC [4, 20]	MIC [5, 21]	MIC [5, 22]	MIC [6, 23]	MIC [6, 24]	MIC [7, 25]	MIC [7, 26]	MIC [8, 27]	MIC [8, 28]	MIC [9, 29]	MIC [9, 30]	MIC [10, 31]	MIC [11, 33]	other results
CCC1OC(=O)CCC(C)C(OC2OC(C)CC(N(C)C)C2O)C(CC=O)CC(C)C(=O)C=CC(C)=CC1CSc1ccccn1 (centres unmarked) [MKT-3003]	<0.025 µg/mL	<0.025 µg/mL	<0.025 µg/mL	<0.025 µg/mL	<0.025 µg/mL	<0.025 µg/mL	50 µg/mL (≈ 75.9 µM)	50 µg/mL (≈ 75.9 µM)	<0.025 µg/mL	<0.025 µg/mL	<0.025 µg/mL	<0.025 µg/mL	<0.025 µg/mL	<0.025 µg/mL	1.56 µg/mL (≈ 2.37 µM)	1.56 µg/mL (≈ 2.37 µM)	1.56 µg/mL (≈ 2.37 µM)	1.56 µg/mL (≈ 2.37 µM)	<0.025 µg/mL	0.1 µg/mL (≈ 0.152 µM)	MIC [10, 32]: <0.025 µg/mL; MIC [11, 34]: 0.1 µg/mL (≈ 0.152 µM); anti-PRSP activity [12]: high anti-PRSP activity; also recorded: inhibited the growth of PRSP at remarkably low concentrations
CCC1OC(=O)CCC(C)C(OC2OC(C)CC(N(C)C)C2O)C(CC=O)CC(C)C(=O)C=CC(C)=CC1CN(C)C (centres unmarked) [MKT-3101]	0.78 µg/mL (≈ 1.32 µM)	–	0.78 µg/mL (≈ 1.32 µM)	–	0.39 µg/mL (≈ 0.658 µM)	–	12.5 µg/mL (≈ 21.1 µM)	–	0.2 µg/mL (≈ 0.337 µM)	–	0.2 µg/mL (≈ 0.337 µM)	–	0.2 µg/mL (≈ 0.337 µM)	–	25 µg/mL (≈ 42.2 µM)	–	50 µg/mL (≈ 84.3 µM)	–	0.2 µg/mL (≈ 0.337 µM)	0.2 µg/mL (≈ 0.337 µM)	–
CCC1OC(=O)CCC(C)C(OC2OC(C)CC(N(C)C)C2O)C(CC=O)CC(C)C(=O)C=CC(C)=CC1CCl (centres unmarked) [MKT-3007]	–	0.20 µg/mL (≈ 0.342 µM)	–	0.20 µg/mL (≈ 0.342 µM)	–	0.20 µg/mL (≈ 0.342 µM)	–	25 µg/mL (≈ 42.8 µM)	–	0.20 µg/mL (≈ 0.342 µM)	–	0.20 µg/mL (≈ 0.342 µM)	–	0.20 µg/mL (≈ 0.342 µM)	–	50 µg/mL (≈ 85.6 µM)	–	50 µg/mL (≈ 85.6 µM)	–	–	MIC [10, 32]: 0.10 µg/mL (≈ 0.171 µM); MIC [11, 34]: 0.20 µg/mL (≈ 0.342 µM)
CCC1OC(=O)CCC(C)C(OC2OC(C)CC(N(C)C)C2O)C(CC=O)CC(C)C(=O)C=CC(C)=CC1CN(C)CCc1ccc(OC)c(OC)c1 (centres unmarked) [MKT-6104]	1.56 µg/mL (≈ 2.1 µM)	–	0.78 µg/mL (≈ 1.05 µM)	–	0.78 µg/mL (≈ 1.05 µM)	–	50 µg/mL (≈ 67.3 µM)	–	1.56 µg/mL (≈ 2.1 µM)	–	1.56 µg/mL (≈ 2.1 µM)	–	1.56 µg/mL (≈ 2.1 µM)	–	25 µg/mL (≈ 33.6 µM)	–	25 µg/mL (≈ 33.6 µM)	–	0.78 µg/mL (≈ 1.05 µM)	1.56 µg/mL (≈ 2.1 µM)	–
CCC1OC(=O)CCC(C)C(OC2OC(C)CC(N(C)C)C2O)C(CC=O)CC(C)C(=O)C=CC(C)=CC1CN=[N+]=[N-] (centres unmarked) [MKT-3004]	0.2 µg/mL (≈ 0.339 µM)	–	0.1 µg/mL (≈ 0.169 µM)	–	0.1 µg/mL (≈ 0.169 µM)	–	25 µg/mL (≈ 42.3 µM)	–	0.2 µg/mL (≈ 0.339 µM)	–	0.2 µg/mL (≈ 0.339 µM)	–	0.2 µg/mL (≈ 0.339 µM)	–	50 µg/mL (≈ 84.6 µM)	–	50 µg/mL (≈ 84.6 µM)	–	0.1 µg/mL (≈ 0.169 µM)	0.1 µg/mL (≈ 0.169 µM)	–
CCC1OC(=O)CCC(C)C(OC2OC(C)CC(N(C)C)C2O)C(CC=O)CC(C)C(=O)C=CC(C)=CC1CN (centres unmarked) [MKT-3005]	0.78 µg/mL (≈ 1.38 µM)	–	1.56 µg/mL (≈ 2.76 µM)	–	0.39 µg/mL (≈ 0.691 µM)	–	50 µg/mL (≈ 88.5 µM)	–	0.2 µg/mL (≈ 0.354 µM)	–	0.05 µg/mL (≈ 0.0885 µM)	–	0.2 µg/mL (≈ 0.354 µM)	–	100 µg/mL (≈ 177 µM)	–	100 µg/mL (≈ 177 µM)	–	0.1 µg/mL (≈ 0.177 µM)	0.2 µg/mL (≈ 0.354 µM)	–
CC[C@H]1OC(=O)[C@H](C)[C@@H](O[C@H]2C[C@@](C)(OC)[C@@H](O)[C@H](C)O2)[C@H](C)[C@@H](O[C@@H]2O[C@H](C)C[C@H](N(C)C)[C@H]2O)[C@](C)(OC)C[C@@H](C)C(=O)[C@H](C)[C@@H](O)[C@]1(C)O [clarithromycin, reference compound]	–	–	–	–	–	–	–	–	–	–	–	–	–	–	–	–	–	–	–	–	MIC [1, 35]: 0.2 µg/mL (≈ 0.267 µM); MIC [2, 36]: 0.2 µg/mL (≈ 0.267 µM); MIC [3, 37]: 0.2 µg/mL (≈ 0.267 µM); MIC [4, 38]: 25 µg/mL (≈ 33.4 µM); MIC [5, 39]: 0.39 µg/mL (≈ 0.521 µM); MIC [6, 40]: 0.05 µg/mL (≈ 0.0668 µM); MIC [7, 41]: 0.05 µg/mL (≈ 0.0668 µM); MIC [8, 42]: > 100 µg/mL; MIC [9, 43]: > 100 µg/mL; MIC [10, 44]: 0.1 µg/mL (≈ 0.134 µM); MIC [11, 45]: 0.1 µg/mL (≈ 0.134 µM)
CCC1OC(=O)CCC(C)C(OC2OC(C)CC(N(C)C)C2O)C(CC=O)CC(C)C(=O)C=CC(C)=CC1CNC(=O)Cc1cccnc1 (centres unmarked) [MKT-3216]	–	0.10 µg/mL (≈ 0.146 µM)	–	0.10 µg/mL (≈ 0.146 µM)	–	0.10 µg/mL (≈ 0.146 µM)	–	6.25 µg/mL (≈ 9.14 µM)	–	0.05 µg/mL (≈ 0.0731 µM)	–	0.05 µg/mL (≈ 0.0731 µM)	–	0.05 µg/mL (≈ 0.0731 µM)	–	12.5 µg/mL (≈ 18.3 µM)	–	12.5 µg/mL (≈ 18.3 µM)	–	–	MIC [10, 32]: 0.10 µg/mL (≈ 0.146 µM); MIC [11, 34]: 0.10 µg/mL (≈ 0.146 µM)
CC[C@H]1OC(=O)C[C@@H](O)[C@H](C)[C@@H](O[C@@H]2O[C@H](C)[C@@H](O[C@H]3C[C@@](C)(O)[C@@H](O)[C@H](C)O3)[C@H](N(C)C)[C@H]2O)[C@@H](CC=O)C[C@@H](C)C(=O)/C=C/C(C)=C/[C@@H]1CO[C@@H]1O[C@H](C)[C@@H](O)[C@@H](OC)[C@H]1OC [tylosin, reference compound]	–	–	–	–	–	–	–	–	–	–	–	–	–	–	–	–	–	–	–	–	MIC [1, 35]: 0.39 µg/mL (≈ 0.426 µM); MIC [2, 36]: 0.39 µg/mL (≈ 0.426 µM); MIC [3, 37]: 0.39 µg/mL (≈ 0.426 µM); MIC [4, 38]: 100 µg/mL (≈ 109 µM); MIC [5, 39]: 0.39 µg/mL (≈ 0.426 µM); MIC [6, 40]: 0.78 µg/mL (≈ 0.851 µM); MIC [7, 41]: 0.39 µg/mL (≈ 0.426 µM); MIC [8, 42]: > 100 µg/mL; MIC [9, 43]: > 100 µg/mL; MIC [10, 44]: 0.39 µg/mL (≈ 0.426 µM); MIC [11, 45]: 0.39 µg/mL (≈ 0.426 µM)
CCC1OC(=O)CCC(C)C(OC2OC(C)CC(N(C)C)C2O)C(CC=O)CC(C)C(=O)C=CC(C)=CC1CN1CCC(CCO)CC1 (centres unmarked) [MKT-6113]	–	0.78 µg/mL (≈ 1.15 µM)	–	1.56 µg/mL (≈ 2.3 µM)	–	1.56 µg/mL (≈ 2.3 µM)	–	>50 µg/mL	–	1.56 µg/mL (≈ 2.3 µM)	–	0.78 µg/mL (≈ 1.15 µM)	–	0.39 µg/mL (≈ 0.576 µM)	–	>50 µg/mL	–	>50 µg/mL	–	–	MIC [10, 32]: 0.20 µg/mL (≈ 0.295 µM); MIC [11, 34]: 0.39 µg/mL (≈ 0.576 µM)
